The source of these data is the NIST ThermoML archive (doi:10.1021/acs.jced.8b00170).

Numbers after ± are expanded uncertainties.

Data set [1] can be described thus: wn = mass fraction of the nth substance listed. The following applies: 101.3 kPa, Liquid, Pycnometric method.
The conditions of data set [2]: Crystal; DTA.
Data set [3] can be described thus: Molar enthalpy of transition or fusion. The conditions noted are these: Crystal; DSC.

As a reminder, the mass density is mass per unit of volume. Regarding `Cc1ccc2c(c1)C(=O)OC2=O` [4-methylphthalic anhydride] + CCOC(C)=O, the mass density amounted to 933 ± 18 kg/m3 in data set [1] (288.15 K, w1 = 0.2202); 948 ± 18 kg/m3 in data set [1] (298.15 K, w1 = 0.2878); 964 ± 19 kg/m3 in data set [1] (308.15 K, w1 = 0.3605).
In the case of `O=Cc1ccc2ccccc2c1` [β-naphthaldehyde] + CCOC(C)=O, the mass density in data set [1] (288.15 K, w1 = 0.2851) was 944 ± 18 kg/m3; in data set [1] (298.15 K, w1 = 0.3937) it was 957 ± 19 kg/m3; in data set [1] (308.15 K, w1 = 0.5686), 975 ± 18 kg/m3.
Turning to `Cc1ccc2c(c1)C(=O)OC2=O` [4-methylphthalic anhydride], in data set [2], the Normal melting temperature was 88.2 ± 2 °C. For the same molecule, in data set [3], the “Molar enthalpy of transition or fusion” value was 4.5 ± 0.263 kcal/mol.
